The record followed here is ChEMBL document CHEMBL1138696, “Evans Blue and other dyes as protein tyrosine phosphatase inhibitors” (Bioorg Med Chem Lett, 2004).

The nature of experiment [1]: Inhibition of human Leukocyte Antigen Related(LAR) protein tyrosine phosphatase D1.
Experiment [2] addresses T1, Tyrosine-protein phosphatase non-receptor type 1 (Homo sapiens, UniProt P18031).
T1 sequence (P18031 whole entry): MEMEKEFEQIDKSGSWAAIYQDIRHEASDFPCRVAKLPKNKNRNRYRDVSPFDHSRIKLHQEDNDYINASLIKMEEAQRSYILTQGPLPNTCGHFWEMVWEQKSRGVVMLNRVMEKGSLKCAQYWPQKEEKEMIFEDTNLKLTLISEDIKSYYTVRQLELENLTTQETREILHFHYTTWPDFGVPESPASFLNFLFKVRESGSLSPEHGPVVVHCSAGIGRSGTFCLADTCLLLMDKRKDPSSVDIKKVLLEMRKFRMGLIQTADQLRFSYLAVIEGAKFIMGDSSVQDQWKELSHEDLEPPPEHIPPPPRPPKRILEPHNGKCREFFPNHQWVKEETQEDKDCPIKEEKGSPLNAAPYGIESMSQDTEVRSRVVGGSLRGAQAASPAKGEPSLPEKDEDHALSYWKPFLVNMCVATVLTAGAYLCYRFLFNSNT
The experiment can be described thus: Inhibition of human PTPase 1B.

The target of experiment [3] is T2, Tyrosine-protein phosphatase 1 (Saccharomyces cerevisiae S288c, UniProt P25044).
T2 sequence (P25044 whole entry): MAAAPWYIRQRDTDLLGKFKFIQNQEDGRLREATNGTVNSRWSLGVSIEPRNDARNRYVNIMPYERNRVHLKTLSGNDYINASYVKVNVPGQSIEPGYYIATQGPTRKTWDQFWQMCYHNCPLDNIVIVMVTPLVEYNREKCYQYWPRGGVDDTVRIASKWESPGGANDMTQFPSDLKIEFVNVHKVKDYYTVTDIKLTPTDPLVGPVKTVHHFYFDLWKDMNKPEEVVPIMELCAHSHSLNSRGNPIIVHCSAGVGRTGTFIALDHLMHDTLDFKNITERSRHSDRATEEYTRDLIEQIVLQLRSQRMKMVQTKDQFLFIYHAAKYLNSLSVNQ
Kind of experiment: Inhibitory activity against Saccharomyces cerevisiae Tyrosine phosphatase 1.

Structures are written as SMILES.

Regarding `O=S(=O)(O)c1cc(O)c2c(O)cc(S(=O)(=O)O)cc2c1` [CHROMOTROPATE], the IC50 (as a rule, the concentration at which inhibition is half-maximal) in experiment [1] was found to be 570 µM; in experiment [2], 9.7 µM; in experiment [3], 6.5 µM.

On to `COc1cc(S(=O)(=O)O)c(C)cc1N=Nc1c(O)ccc2cc(S(=O)(=O)O)ccc12` [E129], for which the IC50 in experiment [1] is 90 µM; in experiment [2], 33 µM; in experiment [3], 410 µM.

For the compound `O=C(O)c1cc2ccccc2c(Cc2c(O)c(C(=O)O)cc3ccccc23)c1O` [PAMOIC ACID], the IC50 in experiment [1] is greater than 1000 µM; in experiment [2], 310 µM; in experiment [3] it was greater than 1000 µM.

On to `O=C(O)c1cc(N=Nc2ccc([N+](=O)[O-])cc2)ccc1O`, for which the IC50 in experiment [1] is greater than 1000 µM; in experiment [2], 210 µM; in experiment [3], 630 µM.

With `Cc1cc(-c2ccc(/N=N/c3c(S(=O)(=O)O)cc4cc(S(=O)(=O)O)cc(N)c4c3O)c(C)c2)ccc1/N=N/c1c(S(=O)(=O)O)cc2cc(S(=O)(=O)O)cc(N)c2c1O` [TRYPAN BLUE], the values for the IC50 in experiment [1], in experiment [2] and in experiment [3] were 170 µM, 3.9 µM and 7.4 µM, respectively.

With `O=C1c2ccccc2C(=O)c2c1cc(S(=O)(=O)O)c(O)c2O` [Alizarin Red S], the IC50 in experiment [1] came to 82 µM; in experiment [2] it was 40 µM; in experiment [3] it was 48 µM.

With `O=S(=O)(O)c1cc(S(=O)(=O)O)c2c(N=Nc3c(O)cc(S(=O)(=O)O)c4ccccc34)c(O)c(S(=O)(=O)O)cc2c1` [E126], the IC50 in experiment [2] amounted to 460 µM; in experiment [3] it was 110 µM.

For the compound `CC(C)=CC[C@@H](O)C1=CC(=O)c2c(O)ccc(O)c2C1=O` [SHIKONIN], the IC50 in experiment [1] was greater than 1000 µM; in experiment [2], 25 µM.

On to `Cc1c(C(=O)O)c(O)cc2c1C(=O)c1c(O)c([C@H]3O[C@H](CO)[C@@H](O)[C@H](O)[C@H]3O)c(O)c(O)c1C2=O` [CARMINE], for which the IC50 in experiment [1] is greater than 1000 µM; in experiment [2], 26 µM; in experiment [3] it was 15 µM.

For `O=C1OC2(c3ccc(O)cc3Oc3cc(O)ccc32)c2ccccc21` [FLUORESCEIN], the IC50 is greater than 1000 µM in experiment [1], 600 µM in experiment [2] and 850 µM in experiment [3].

`C/C(=C1/C=CC(=O)C(C(=O)O)=C1)c1ccc(O)c(C(=O)O)c1`: the IC50 in experiment [1] is greater than 1000 µM; in experiment [2], 5.2 µM; in experiment [3], 30 µM.

On to `Cc1cc(-c2ccc(/N=N/c3ccc4c(S(=O)(=O)O)cc(S(=O)(=O)O)c(N)c4c3O)c(C)c2)ccc1/N=N/c1ccc2c(S(=O)(=O)O)cc(S(=O)(=O)O)c(N)c2c1O` [EVANS BLUE], for which the concentration for half-maximal inhibition (IC50) was determined as 61 µM in experiment [1], 1.3 µM in experiment [2] and 1.2 µM in experiment [3].

As for `Cc1[nH]n(-c2ccccc2)c(=O)c1N=Nc1c(O)cc(S(=O)(=O)O)c2ccccc12`, the IC50 was 660 µM in experiment [1], 150 µM in experiment [2] and 140 µM in experiment [3].
